# Results as given in patent US7196114B2, “Substituted 3-(benzoylureido) thiophene derivatives, processes for preparing them and their use” (Sanofi-Aventis Deutschland GmbH, priority 2003, dated 2007).
# Experiments:
# [1] = target: T1, human glycogen phosphorylase a (Homo sapiens, UniProt P06737); test: Glycogen phosphorylase a activity test; format: biochemical; settings: inhibition of GPa in vitro, reverse direction (glycogen synthesis from glucose 1-phosphate, released inorganic phosphate, absorption at 820 nm)
# T1 sequence (P06737 1-847): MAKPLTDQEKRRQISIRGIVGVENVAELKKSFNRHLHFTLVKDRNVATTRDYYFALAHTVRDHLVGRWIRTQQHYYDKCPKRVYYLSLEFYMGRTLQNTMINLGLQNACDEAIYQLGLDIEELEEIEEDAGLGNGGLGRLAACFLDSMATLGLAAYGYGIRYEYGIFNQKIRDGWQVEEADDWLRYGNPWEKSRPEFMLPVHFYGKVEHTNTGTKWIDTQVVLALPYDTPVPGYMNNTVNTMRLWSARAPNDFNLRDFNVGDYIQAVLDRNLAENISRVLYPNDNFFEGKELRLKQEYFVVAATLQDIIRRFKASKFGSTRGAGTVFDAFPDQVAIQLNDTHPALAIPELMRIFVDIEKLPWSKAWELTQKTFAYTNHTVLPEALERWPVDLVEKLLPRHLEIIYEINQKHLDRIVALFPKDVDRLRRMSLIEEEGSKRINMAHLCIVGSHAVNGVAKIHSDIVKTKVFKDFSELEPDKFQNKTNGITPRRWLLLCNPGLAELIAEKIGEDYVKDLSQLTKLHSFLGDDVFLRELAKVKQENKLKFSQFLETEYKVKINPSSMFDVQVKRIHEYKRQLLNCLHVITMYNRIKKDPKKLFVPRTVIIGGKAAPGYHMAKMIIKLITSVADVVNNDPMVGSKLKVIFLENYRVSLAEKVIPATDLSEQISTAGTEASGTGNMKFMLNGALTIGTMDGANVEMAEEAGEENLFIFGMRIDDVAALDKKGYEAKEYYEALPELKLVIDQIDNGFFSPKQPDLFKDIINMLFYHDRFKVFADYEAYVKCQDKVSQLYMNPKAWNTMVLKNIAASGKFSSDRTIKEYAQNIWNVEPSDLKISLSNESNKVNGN
SMILES,IC50 [1],melting point
"Nc1nnc(-c2sccc2NC(=O)NC(=O)c2cc(F)c(F)cc2Cl)o1 [Example 2c, 1-[2-(5-Amino[1,3,4]oxadiazol-2-yl)thiophen-3-yl]-3-(2-chloro-4,5-difluorobenzoyl)urea]",450 nM,–
"O=C(NC(=O)c1cc(F)c(F)cc1Cl)Nc1cc(S(=O)(=O)N2CCCCC2)sc1N1CCC(C(=O)O)CC1 [Example 4d, 1-[3-[3-(2-Chloro-4,5-difluorobenzoyl)ureido]-5-(piperidine-1-sulfonyl)-thiophen-2-yl]piperidine-4-carboxylic acid]",110 nM,219.9 °C
NC(=O)c1sccc1NC(=O)NC(=O)c1cc(F)c(F)cc1Cl [Example 6],700 nM,–
CC(=O)c1sc(-c2ccccc2)cc1NC(=O)NC(=O)c1cc(F)c(F)cc1Cl [Example 15],170 nM,204.8 °C
NC(=O)c1sc(-c2cccs2)cc1NC(=O)NC(=O)c1cc(F)c(F)cc1Cl [Example 23],50 nM,> 250 °C (dec.)
O=C(NC(=O)c1cc(F)c(F)cc1Cl)Nc1cscc1-c1ccccc1 [Example 30],1400 nM,–
O=C(NC(=O)c1ccc(F)cc1Cl)Nc1ccsc1-c1nnn[nH]1 [Example 33],80 nM,219.8 °C

# These reach a lower IC50 [1]. Values come first.
IC50 [1],melting point,SMILES
40 nM,> 300 °C,COc1ccc(-c2cc(NC(=O)NC(=O)c3cc(F)c(F)cc3Cl)c(C(N)=O)s2)cc1 [Example 24]
30 nM,236.1 °C,"O=C(NC(=O)c1cc(F)c(F)cc1Cl)Nc1ccsc1-c1n[nH]c(=O)o1 [Example 1d, 1-(2-Chloro-4,5-difluorobenzoyl)-3-[2-(5-oxo-4,5-dihydro[1,3,4]oxadiazol-2-yl)thiophen-3-yl]urea]"
30 nM,> 300 °C,NC(=O)c1sc(-c2ccccc2)cc1NC(=O)NC(=O)c1cc(F)c(F)cc1Cl [Example 17]
10 nM,227.7 °C,"O=C(NC(=O)c1cc(F)c(F)cc1Cl)Nc1cc(-c2ccc(F)cc2)sc1C(=O)O [Example 3b, 3-[3-(2-Chloro-4,5-difluorobenzoyl)ureido]-5-(4-fluorophenyl)thiophene-2-carboxylic acid]"
10 nM,226.5 °C,O=C(NC(=O)c1cc(F)c(F)cc1Cl)Nc1cc(-c2ccccc2)sc1C(=O)O [Example 21]
